IC50 data for two compounds are collected here from ChEMBL document CHEMBL1141757, “Structural revision of aspernigrin A, reisolated from Cladosporium herbarum IFB-E002” (J Nat Prod, 2005).

Assay [1] addresses Xanthine dehydrogenase/oxidase (Homo sapiens, UniProt P47989). The experiment in a line: Inhibition of xanthine oxidase.
Assay [2] in a line: Cytotoxicity against human SW1116 cells. The assay is classed as functional, cell-based. The note with it: SW 1116.

Chain of Xanthine dehydrogenase/oxidase (P47989 whole entry): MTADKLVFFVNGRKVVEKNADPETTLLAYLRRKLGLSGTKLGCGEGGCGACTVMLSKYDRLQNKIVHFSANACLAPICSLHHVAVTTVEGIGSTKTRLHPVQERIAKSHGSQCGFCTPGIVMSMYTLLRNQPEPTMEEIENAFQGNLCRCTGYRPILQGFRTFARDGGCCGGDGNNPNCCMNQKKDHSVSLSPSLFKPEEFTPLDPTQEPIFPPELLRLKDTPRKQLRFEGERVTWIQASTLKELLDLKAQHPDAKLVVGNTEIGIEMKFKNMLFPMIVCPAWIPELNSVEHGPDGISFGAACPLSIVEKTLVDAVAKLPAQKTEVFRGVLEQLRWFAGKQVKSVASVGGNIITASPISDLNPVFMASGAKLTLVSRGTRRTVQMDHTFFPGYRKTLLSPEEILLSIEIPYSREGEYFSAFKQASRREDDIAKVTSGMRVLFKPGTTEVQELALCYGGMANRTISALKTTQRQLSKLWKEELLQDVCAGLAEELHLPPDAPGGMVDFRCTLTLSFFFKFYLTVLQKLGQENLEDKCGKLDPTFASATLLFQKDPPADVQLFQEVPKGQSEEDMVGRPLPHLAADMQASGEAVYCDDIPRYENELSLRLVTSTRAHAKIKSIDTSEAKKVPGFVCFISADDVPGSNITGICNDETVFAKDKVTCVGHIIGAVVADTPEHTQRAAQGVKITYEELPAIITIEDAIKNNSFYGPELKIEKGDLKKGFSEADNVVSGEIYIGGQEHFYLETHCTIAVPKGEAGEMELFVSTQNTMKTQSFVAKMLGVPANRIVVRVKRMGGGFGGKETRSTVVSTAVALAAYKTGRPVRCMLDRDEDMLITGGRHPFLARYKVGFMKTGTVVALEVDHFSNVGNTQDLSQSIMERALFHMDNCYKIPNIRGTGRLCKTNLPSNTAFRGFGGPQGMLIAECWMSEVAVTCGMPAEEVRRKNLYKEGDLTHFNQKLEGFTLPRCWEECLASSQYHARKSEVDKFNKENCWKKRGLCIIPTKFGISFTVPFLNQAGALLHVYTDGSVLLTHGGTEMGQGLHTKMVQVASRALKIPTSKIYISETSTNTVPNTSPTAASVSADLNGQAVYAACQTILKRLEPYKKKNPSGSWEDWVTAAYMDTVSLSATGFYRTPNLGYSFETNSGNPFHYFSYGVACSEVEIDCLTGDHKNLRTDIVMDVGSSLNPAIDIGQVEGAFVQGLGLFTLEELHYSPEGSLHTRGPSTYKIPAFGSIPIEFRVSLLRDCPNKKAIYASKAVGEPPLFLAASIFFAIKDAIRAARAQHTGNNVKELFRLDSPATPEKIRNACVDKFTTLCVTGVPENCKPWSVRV

Regarding `COc1cc(OC)c2c(O)c3c(=O)cc(C)oc3cc2c1` [RUBROFUSARIN B], the IC50 (in general, the midpoint of a concentration-inhibition curve) turned out to be 16.8 µM in assay [1] and 15.7 µM in assay [2].

In turn, `COc1cc(OC)c2c(O)c3c(=O)cc(C)oc3c(-c3c(OC)cc4cc(O)c5c(=O)cc(C)oc5c4c3OC)c2c1` [FONSECINONE A] registered an IC50 in assay [1] of 19.5 µM.
